The record followed here is ChEMBL document CHEMBL1152560, “Substituted 2-arylbenzothiazoles as kinase inhibitors: hit-to-lead optimization” (Bioorg Med Chem, 2009).

Assay [1] deals with T1, Serine/threonine-protein kinase PLK4 (Homo sapiens) (UniProt O00444).
T1 sequence (whole entry): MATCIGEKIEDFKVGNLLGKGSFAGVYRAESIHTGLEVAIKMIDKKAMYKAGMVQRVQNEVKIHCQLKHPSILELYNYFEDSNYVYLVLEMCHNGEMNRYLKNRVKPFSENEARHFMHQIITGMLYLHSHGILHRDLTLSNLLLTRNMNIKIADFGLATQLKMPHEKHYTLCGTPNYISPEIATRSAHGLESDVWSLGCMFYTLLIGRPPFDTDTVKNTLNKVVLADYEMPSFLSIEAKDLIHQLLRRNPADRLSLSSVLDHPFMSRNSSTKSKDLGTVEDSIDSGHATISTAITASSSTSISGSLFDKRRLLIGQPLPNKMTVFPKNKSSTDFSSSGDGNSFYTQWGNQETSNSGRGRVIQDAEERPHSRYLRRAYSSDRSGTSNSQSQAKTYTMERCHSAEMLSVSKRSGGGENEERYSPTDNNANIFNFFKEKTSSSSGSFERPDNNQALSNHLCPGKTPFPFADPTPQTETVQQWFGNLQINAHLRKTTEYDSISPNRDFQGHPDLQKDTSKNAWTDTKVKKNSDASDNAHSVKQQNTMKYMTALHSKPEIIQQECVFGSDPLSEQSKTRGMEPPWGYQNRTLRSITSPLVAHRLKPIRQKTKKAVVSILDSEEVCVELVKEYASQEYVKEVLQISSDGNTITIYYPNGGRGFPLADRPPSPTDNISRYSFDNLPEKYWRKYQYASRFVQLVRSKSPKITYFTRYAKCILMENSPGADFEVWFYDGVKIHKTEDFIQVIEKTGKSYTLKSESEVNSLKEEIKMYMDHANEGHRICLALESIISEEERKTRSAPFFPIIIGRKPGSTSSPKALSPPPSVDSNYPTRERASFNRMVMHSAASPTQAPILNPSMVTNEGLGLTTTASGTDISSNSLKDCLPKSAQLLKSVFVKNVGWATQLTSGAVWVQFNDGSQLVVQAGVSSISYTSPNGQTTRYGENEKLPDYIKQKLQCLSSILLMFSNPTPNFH
In words: Residual activity of SAK at 1 uM by microplate scintillation counting.

For assay [2], the target named is T2, cGMP-dependent protein kinase 2 (Homo sapiens) (UniProt Q13237).
T2 sequence (whole entry): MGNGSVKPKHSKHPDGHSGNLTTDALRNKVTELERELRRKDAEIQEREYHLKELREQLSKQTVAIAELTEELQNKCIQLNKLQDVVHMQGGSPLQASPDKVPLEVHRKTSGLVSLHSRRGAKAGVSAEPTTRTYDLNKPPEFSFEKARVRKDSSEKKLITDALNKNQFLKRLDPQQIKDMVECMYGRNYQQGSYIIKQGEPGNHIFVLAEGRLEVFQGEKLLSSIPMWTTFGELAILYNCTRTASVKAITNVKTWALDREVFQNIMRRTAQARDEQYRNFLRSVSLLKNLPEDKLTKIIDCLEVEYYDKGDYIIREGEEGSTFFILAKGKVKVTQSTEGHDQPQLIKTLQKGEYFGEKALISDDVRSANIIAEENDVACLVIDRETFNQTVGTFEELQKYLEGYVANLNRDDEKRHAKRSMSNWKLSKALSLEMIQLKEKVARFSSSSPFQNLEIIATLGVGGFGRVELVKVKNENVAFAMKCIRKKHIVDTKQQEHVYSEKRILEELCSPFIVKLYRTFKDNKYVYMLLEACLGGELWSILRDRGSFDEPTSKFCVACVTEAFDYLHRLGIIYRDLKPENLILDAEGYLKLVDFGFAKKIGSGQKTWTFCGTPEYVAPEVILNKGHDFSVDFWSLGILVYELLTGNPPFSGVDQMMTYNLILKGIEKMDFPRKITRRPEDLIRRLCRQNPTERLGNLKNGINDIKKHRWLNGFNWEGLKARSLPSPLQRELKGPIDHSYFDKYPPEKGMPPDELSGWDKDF
In words: Residual activity of PRKG2 at 0.1 uM by microplate scintillation counting.

Assay [3] concerns the target T3, Ephrin type-A receptor 1 (Homo sapiens) (UniProt P21709).
T3 sequence (whole entry): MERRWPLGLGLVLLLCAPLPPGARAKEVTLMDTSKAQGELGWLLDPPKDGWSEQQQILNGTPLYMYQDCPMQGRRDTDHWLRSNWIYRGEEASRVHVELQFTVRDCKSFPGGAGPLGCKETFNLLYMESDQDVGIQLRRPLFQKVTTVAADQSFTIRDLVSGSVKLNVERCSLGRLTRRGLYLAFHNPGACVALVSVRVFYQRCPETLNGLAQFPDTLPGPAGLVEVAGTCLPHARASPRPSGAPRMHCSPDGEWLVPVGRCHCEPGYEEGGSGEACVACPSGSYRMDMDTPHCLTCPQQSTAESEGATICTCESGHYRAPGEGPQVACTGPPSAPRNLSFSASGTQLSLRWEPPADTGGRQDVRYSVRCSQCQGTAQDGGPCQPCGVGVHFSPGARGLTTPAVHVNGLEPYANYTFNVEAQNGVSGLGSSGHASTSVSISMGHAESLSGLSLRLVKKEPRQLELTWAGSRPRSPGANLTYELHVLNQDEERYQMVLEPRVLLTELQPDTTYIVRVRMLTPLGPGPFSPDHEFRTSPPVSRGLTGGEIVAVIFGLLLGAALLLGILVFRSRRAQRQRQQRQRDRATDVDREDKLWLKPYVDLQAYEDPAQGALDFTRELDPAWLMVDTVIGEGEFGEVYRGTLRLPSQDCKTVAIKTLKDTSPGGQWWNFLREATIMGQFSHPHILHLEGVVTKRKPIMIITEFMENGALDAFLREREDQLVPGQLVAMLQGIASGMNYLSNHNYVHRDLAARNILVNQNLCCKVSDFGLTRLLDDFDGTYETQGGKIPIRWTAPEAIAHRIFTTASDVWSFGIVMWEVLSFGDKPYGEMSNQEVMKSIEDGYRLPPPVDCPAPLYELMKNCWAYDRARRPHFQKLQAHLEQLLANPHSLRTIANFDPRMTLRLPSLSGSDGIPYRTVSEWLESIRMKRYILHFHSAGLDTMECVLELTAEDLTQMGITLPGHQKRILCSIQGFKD
Description: Residual activity of EPHA1 at 0.1 uM by microplate scintillation counting.

Each structure is given as a SMILES string.

By residual activity is commonly meant the signal under treatment as a percentage of the control signal. For the compound `COc1cc2c(Oc3ccc(-c4nc5ccccc5s4)cc3F)ncnc2cc1OCCCN1CCN(C)CC1`, the residual activity was determined as 26% in assay [1], 86% in assay [2] and 106% in assay [3].

Turning to `COc1cc2c(Oc3ccc(-c4nc5ccccc5s4)cc3)ncnc2cc1OCCCN1CCN(C)CC1`, the residual activity in assay [1] is 10%; in assay [2], 87%; in assay [3] it was 112%.

For the compound `COc1cc2c(Oc3ccc(-c4nc5ccccc5s4)cc3)ncnc2cc1OCCCN1CCCC1`, the figures for the residual activity in assay [1], in assay [2] and in assay [3] were 19%, 84% and 102%, respectively.
